According to patent publication USRE48461E1, “Modulation of androgen receptor expression” (Ionis Pharmaceuticals, Inc., priority 2012, dated 2021):

How the values were obtained:
Format in all cases: cell-based, human
LNCaP cells = experiment: LNCaP cell proliferation, ASO in combination with MDV3100 (Example 20); details: for Proliferation (% untreated control) in LNCaP without MDV-3100: 5 days
Experimental: LNCaP cells were plated at 1,000 cells per well. […] ISIS 549148 was included as a negative control. […] After a treatment period of 5 days, the proliferative capacity of the cancer cells was measured with CellTiter 96® AQueous One or CellTiter-Glo® Solution Cell Proliferation kit (Promega), following the manufacturer's instructions. […]

C4-2 cells = experiment: C4-2 cell proliferation (complete or CSS+DHT medium); details: C4-2 cells, 5 days
Experimental: After a treatment period of 5 days in complete medium or CSS+1 nM DHT medium, the proliferative capacity of the cancer cells was measured with using CellTiter 96® AQueous One Solution or CellTiter-Glo® Cell Proliferation kit (Promega), following the manufacturer's instructions. […] The proliferative capacity of cells cultured in CSS medium without DHT is 17% of untreated control levels.

full length AR mRNA = experiment: Full-length AR RNA in VCaP cells (complete, CSS+DHT medium); details: RNAiMax, 48 hrs
Experimental: (§1) Cells were plated at 10,000 cells per well. […] After an incubation period of 48 hrs, RNA levels of full length AR, the V7 variant, PSA and TMPRSS2 were measured.
(§2) After an incubation period of 48 hrs, RNA levels of full length AR, the V7 variant, PSA and TMPRSS2 were measured. The data is presented in Tables 108 expressed as percent expression of gene levels compared to the untreated control.
(§3) Cells were plated at 15,000 cells per well and cultured in CSS media for 16 hours. […] After 4 hrs, 1 nM DHT was added. […] After an incubation period of 48 hrs, RNA levels of AR, PSA and TMPRSS2 were measured.

PSA mRNA = experiment: PSA expression in VCaP cells; details: RNAiMax, 48 hrs
Experimental: as §1, §2, §3

TMPRSS2 mRNA [1] = experiment: TMPRSS2 expression in VCaP cells; details: RNAiMax, 48 hrs
Experimental: as §1, §2, §3

TMPRSS2 mRNA [2] = experiment: TMPRSS2 expression in 22RV1 cells; details: RNAiMax, 48 hrs
Experimental: Cells were plated at 1,000 cells per well. […] After an incubation period of 48 hrs, RNA levels of full length AR, the V7 variant, PSA and TMPRSS2 were measured.
After an incubation period of 48 hrs, RNA levels of full length AR, the V7 variant, PSA and TMPRSS2 were measured.
Cells were plated at 2,000 cells per well and cultured in CSS media for 16 hours. […] After 4 hrs, 1 nM DHT was added. […] After an incubation period of 48 hrs, RNA levels of AR, AR V7 variant, PSA and TMPRSS2 were measured.

Question: What does the source list for “GGCTACTACGCCGTCA (3-10-3 (S)-cEt gapmer, chemistry not fully specified) [ISIS 549148, reference compound]”?
Answer: Proliferation (% untreated control) in LNCaP with 0.08 μM MDV-3100 (LNCaP cells; ASO dose 0.04 μM + 0.08 μM MDV-3100): 101 % untreated control; Proliferation (% untreated control) in LNCaP with 0.4 μM MDV-3100 (LNCaP cells; ASO dose 0.04 μM + 0.4 μM MDV-3100): 57 % untreated control; Proliferation (% untreated control) in LNCaP with 2.0 μM MDV-3100 (LNCaP cells; ASO dose 0.04 μM + 2.0 μM MDV-3100): 42 % untreated control; Proliferation (% untreated control) in LNCaP with […] MDV-3100 (LNCaP cells; ASO dose 0.04 μM + […] MDV-3100): 86 % untreated control; Proliferation (% untreated control) in LNCaP without MDV-3100 (LNCaP cells; ASO dose 0.04 μM): 101 % untreated control; Proliferation (% untreated control) in LNCaP with 0.08 μM MDV-3100 (LNCaP cells; ASO dose 0.08 μM + 0.08 μM MDV-3100): 93 % untreated control; Proliferation (% untreated control) in LNCaP with 0.4 μM MDV-3100 (LNCaP cells; ASO dose 0.08 μM + 0.4 μM MDV-3100): 65 % untreated control; Proliferation (% untreated control) in LNCaP with 2.0 μM MDV-3100 (LNCaP cells; ASO dose 0.08 μM + 2.0 μM MDV-3100): 39 % untreated control; Proliferation (% untreated control) in LNCaP with […] MDV-3100 (LNCaP cells; ASO dose 0.08 μM + […] MDV-3100): 106 % untreated control; Proliferation (% untreated control) in LNCaP without MDV-3100 (LNCaP cells; ASO dose 0.08 μM): 104 % untreated control; Proliferation (% untreated control) in LNCaP with 0.08 μM MDV-3100 (LNCaP cells; ASO dose 0.2 μM + 0.08 μM MDV-3100): 89 % untreated control; Proliferation (% untreated control) in LNCaP with 0.4 μM MDV-3100 (LNCaP cells; ASO dose 0.2 μM + 0.4 μM MDV-3100): 50 % untreated control; Proliferation (% untreated control) in LNCaP with 2.0 μM MDV-3100 (LNCaP cells; ASO dose 0.2 μM + 2.0 μM MDV-3100): 41 % untreated control; Proliferation (% untreated control) in LNCaP with […] MDV-3100 (LNCaP cells; ASO dose 0.2 μM + […] MDV-3100): 83 % untreated control; Proliferation (% untreated control) in LNCaP without MDV-3100 (LNCaP cells; ASO dose 0.2 μM): 91 % untreated control; Proliferation (% untreated control) in LNCaP with 0.08 μM MDV-3100 (LNCaP cells; ASO dose 1.0 μM + 0.08 μM MDV-3100): 90 % untreated control; Proliferation (% untreated control) in LNCaP with 0.4 μM MDV-3100 (LNCaP cells; ASO dose 1.0 μM + 0.4 μM MDV-3100): 48 % untreated control; Proliferation (% untreated control) in LNCaP with 2.0 μM MDV-3100 (LNCaP cells; ASO dose 1.0 μM + 2.0 μM MDV-3100): 32 % untreated control; Proliferation (% untreated control) in LNCaP with […] MDV-3100 (LNCaP cells; ASO dose 1.0 μM + […] MDV-3100): 59 % untreated control; Proliferation (% untreated control) in LNCaP without MDV-3100 (LNCaP cells; ASO dose 1.0 μM): 82 % untreated control; Proliferation (% untreated control) (C4-2 cells; CSS + DHT medium, 0.04 μM): 102 % untreated control; Proliferation (% untreated control) (C4-2 cells; CSS + DHT medium, 0.2 μM): 82 % untreated control; Proliferation (% untreated control) (C4-2 cells; CSS + DHT medium, 1 μM): 82 % untreated control; Proliferation (% untreated control) (C4-2 cells; CSS + DHT medium, 5.0 μM): 91 % untreated control; Proliferation (% untreated control) (C4-2 cells; complete medium, 0.04 μM): 106 % untreated control; Proliferation (% untreated control) (C4-2 cells; complete medium, 0.2 μM): 112 % untreated control; Proliferation (% untreated control) (C4-2 cells; complete medium, 1 μM): 91 % untreated control; Proliferation (% untreated control) (C4-2 cells; complete medium, 5.0 μM): 94 % untreated control; Percent inhibition of full-length AR (full length AR mRNA; CSS medium, 1.34 nM): 0%; Percent inhibition of full-length AR (full length AR mRNA; CSS medium, 4.0 nM): 0%; Percent inhibition of full-length AR (full length AR mRNA; CSS medium, 13.4 nM): 0%; Percent inhibition of full-length AR (full length AR mRNA; CSS medium, 40 nM): 0%; Percent inhibition of full-length AR (full length AR mRNA; complete medium, 1.34 nM): 0%; Percent inhibition of full-length AR (full length AR mRNA; complete medium, 4.0 nM): 8%; Percent inhibition of full-length AR (full length AR mRNA; complete medium, 13.4 nM): 5%; Percent inhibition of full-length AR (full length AR mRNA; complete medium, 40 nM): 17%; Percent inhibition of PSA expression (PSA mRNA; CSS + DHT medium, 1.34 nM): 0%; Percent inhibition of PSA expression (PSA mRNA; CSS + DHT medium, 4.0 nM): 3%; Percent inhibition of PSA expression (PSA mRNA; CSS + DHT medium, 13.4 nM): 9%; Percent inhibition of PSA expression (PSA mRNA; CSS + DHT medium, 40 nM): 0%; Percent inhibition of PSA expression (PSA mRNA; complete medium, 1.34 nM): 2%; Percent inhibition of PSA expression (PSA mRNA; complete medium, 4.0 nM): 0%; Percent inhibition of PSA expression (PSA mRNA; complete medium, 13.4 nM): 0%; Percent inhibition of PSA expression (PSA mRNA; complete medium, 40 nM): 20%; Percent inhibition of TMPRSS2 expression (TMPRSS2 mRNA [1]; CSS + DHT medium, 1.34 nM): 0%; Percent inhibition of TMPRSS2 expression (TMPRSS2 mRNA [1]; CSS + DHT medium, 4.0 nM): 0%; Percent inhibition of TMPRSS2 expression (TMPRSS2 mRNA [1]; CSS + DHT medium, 13.4 nM): 0%; Percent inhibition of TMPRSS2 expression (TMPRSS2 mRNA [1]; CSS + DHT medium, 40 nM): 0%; Percent inhibition of TMPRSS2 expression (TMPRSS2 mRNA [1]; complete medium, 1.34 nM): 0%; Percent inhibition of TMPRSS2 expression (TMPRSS2 mRNA [1]; complete medium, 4.0 nM): 0%; Percent inhibition of TMPRSS2 expression (TMPRSS2 mRNA [1]; complete medium, 13.4 nM): 0%; Percent inhibition of TMPRSS2 expression (TMPRSS2 mRNA [1]; complete medium, 40 nM): 0%; Percent inhibition of TMPRSS2 expression (TMPRSS2 mRNA [2]; CSS + DHT medium, 1.34 nM): 0%; Percent inhibition of TMPRSS2 expression (TMPRSS2 mRNA [2]; CSS + DHT medium, 4.0 nM): 3%; Percent inhibition of TMPRSS2 expression (TMPRSS2 mRNA [2]; CSS + DHT medium, 13.4 nM): 1%; Percent inhibition of TMPRSS2 expression (TMPRSS2 mRNA [2]; complete medium, 1.34 nM): 15%; Percent inhibition of TMPRSS2 expression (TMPRSS2 mRNA [2]; complete medium, 4.0 nM): 9%; Percent inhibition of TMPRSS2 expression (TMPRSS2 mRNA [2]; complete medium, 13.4 nM): 14%; Percent inhibition of TMPRSS2 expression (TMPRSS2 mRNA [2]; complete medium, 40 nM): 4%
